The values below come from US4789675A, “1,4-benzoxazine derivatives and pharmaceutical use” (priority 1986, dated 1988).

Where two headings read alike, the source gives them in different places.

Assay [1] deals with contraction of rabbit aorta strip caused by KCl. As to the kind of experiment: Vasodilating action: inhibition of contraction of aorta strip caused by KCl. As to conditions: Oryctolagus cuniculus, compound 10^-5 M, KCl (6.0 mM), read-out: Inhibitory percent against contraction (KCl). The method, then: (§1) A spiral strip of aorta of a rabbit (2 to 3 mm width, about 3 cm length) was allowed to equilibrate by hanging under 2 g force in a Krebs-Henseleitsolution. The solution was saturated with a mixture gas of 97% O2 -3% CO2 which was warmed to 37° C. Inhibitory actions of compounds (10^-5 M) of this invention against contraction of the aorta strip caused by KCl ([…]), norepinephrine (NE) (10^-6 M) or serotonin (5-HT) (10^-6 M), by treating the strip with a compound of this invention 30 minutes before the test (15 minutes in the case of 5-HT), are shown in Table 1 as inhibitory percentage.

In assay [2] the test system is Spontaneously hypertensive rats. As to the kind of experiment: Antihypertensive action in spontaneously hypertensive rats (tail-cuff). The assay is classed as in vivo, rat. Particulars: 1 hour after administration. On the procedure: Spontaneously hypertensive rats (male, 12 to 13 weeks old, blood pressure before administration of drug was about 200 mmHg) were used in groups of 3 individuals. After measuring tail arterial pressure of these animals by the tail-cuff method, the animals were orally given 3 to 60 mg/kg of each test compound of this invention as 2 ml of its suspension in gum arabic. Blood pressure measurements were made again one hour after administration of each test compound.

Assay [3] concerns contraction of rabbit aorta strip caused by norepinephrine (NE). Nature of the assay: Vasodilating action: inhibition of contraction of aorta strip caused by norepinephrine (NE). Particulars: Oryctolagus cuniculus; compound 10^-5 M; NE 10^-6 M; treated 30 minutes before the test; read-out: Inhibitory percent against contraction (NE). On the procedure: as §1
Assay [4] has as its system caffeine-induced contraction of rabbit aorta strip depending on intracellular Ca^++. Nature of the assay: Intracellular Ca++ antagonism: inhibition of caffeine-induced contraction of aorta strip in Ca-free/EGTA solution. As to conditions: Oryctolagus cuniculus, caffeine 20 mM, Ca++ 0 mM, EGTA 5 mM, read-out: Inhibitory percent (caffeine contraction); for inhibition at 1 µM: compound 10^-6 M. The method, then: A spiral strip of aorta of a rabbit (2 to 3 mm width, aobut 3 cm length) was allowed to equilibrate by hanging under 2 g force in a Krebs-Henseleitsolution. The solution was saturated with a mixture gas of 97% O2 -3% CO2, which was warmed to 37° C. The strip was moved into another Krebs-Henseleit solution containing Ca^++ OmM and EGTA 5 mM. Five minutes later, caffeine (20 mM) was added to the solution. The resulting contraction of the strip was made as the index of the contraction depending on intracellular Ca^++.

[5] abbreviates: treated 30 minutes before the test.

`O=C1Nc2cc3c(cc2O[C@@H]1CCCN1CCN(c2ccc(F)cc2)CC1)CCCC3` [Example 31, (R)-(+)-2-{3-[4-(4-fluorophenyl)-1-piperazinyl]propyl}-6,7,8,9-tetrahydro-2H-naphtho[2,3-b][1,4]oxazin-3(4H)-one]: the inhibition at 10 µM in assay [1] (setting [5]) was 30%; in assay [3], 99%. Further, the “Antihypertensive effect (Δ mm Hg)” value in assay [2] (3 mg/kg oral) is 21 mm Hg.
Take `O=C1Nc2cc3c(cc2OC1CCCN1CCN(c2ccc(O)cc2)CC1)CCCC3` (stereo not shown) [Example 21]: the values for the inhibition at 10 µM in assay [1] (setting [5]) and in assay [3] were 26% and 99%, respectively. In addition, the inhibition at 1 µM in assay [4] is 54%.
For the molecule `O=C1Nc2c(ccc3c2CCC3)OC1CCCN1CCN(c2ccc(F)cc2)CC1` (stereo not shown) [Example 28, 5,6-cyclopenteno-2-{3-[4-(4-fluorophenyl)-1-piperazinyl]propyl}-2H-1,4-benzoxazin-3(4H)-one], the inhibition at 10 µM is 28% in assay [1] (setting [5]) and 100% in assay [3]. Besides, the “Antihypertensive effect (Δ mm Hg)” value in assay [2] (3 mg/kg oral) turned out to be 20 mm Hg.
For `O=C1Nc2cc3c(cc2OC1CCCN1CCN(c2ccc(F)cc2)CC1)CCC3` (stereo not shown) [Example 12], the inhibition at 10 µM in assay [1] (setting [5]) was 21%; in assay [3], 100%. The “Antihypertensive effect (Δ mm Hg)” value in assay [2] (3 mg/kg oral) stood at 20 mm Hg.
For `O=C1Nc2ccccc2OC1CCCN1CCN(c2ccc(F)cc2)CC1` (stereo not shown) [Example 2], the results for the inhibition at 10 µM in assay [1] (treating 3 hours before the test (*1)) and in assay [3] were 73% and 100%, respectively. In addition, in assay [2] (60 mg/kg oral), the “Antihypertensive effect (Δ mm Hg)” value was found to be 44 mm Hg.
With `CN1C(=O)C(CCCN2CCN(c3ccc(F)cc3)CC2)Oc2cc3c(cc21)CCCC3` (stereo not shown) [Example 23, 2-{3-[4-(4-fluorophenyl)-1-piperazinyl]propyl}-6,7,8,9-tetrahydro-4-methyl-2H-naphtho[2,3-b][1,4]oxazin-3(4H)-one], the inhibition at 1 µM in assay [4] turned out to be 42%.
Regarding `Nc1ccc2c(c1)NC(=O)C(CCCN1CCN(c3ccc(F)cc3)CC1)O2` (stereo not shown) [Example 24, 6-amino-2-{3-[4-(4-fluorophenyl)-1-piperazinyl]propyl}-2H-1,4-benzoxazin-3(4H)-one], the “Antihypertensive effect (Δ mm Hg)” value in assay [2] (60 mg/kg oral) is 60 mm Hg.
Regarding `O=C1Nc2c(ccc3c2CCCC3)OC1CCCN1CCN(c2ccc(F)cc2)CC1` (stereo not shown) [Example 10], the inhibition at 10 µM in assay [4] (compound 10^-5 M) stood at 59%. The “Antihypertensive effect (Δ mm Hg)” value in assay [2] (10 mg/kg oral) is on record as 23 mm Hg.
`CC(=O)Nc1ccc2c(c1)NC(=O)C(CCCN1CCN(c3ccc(F)cc3)CC1)O2` (stereo not shown) [Example 25, 6-acetamido-2-{3-[4-(4-fluorophenyl)-1-piperazinyl]propyl}-2H-1,4-benzoxazin-3(4H)-one]: the inhibition at 10 µM in assay [1] (setting [5]) is 9%; in assay [3], 100%. Besides, the “Antihypertensive effect (Δ mm Hg)” value in assay [2] (60 mg/kg oral) is 81 mm Hg.
As for `O=C1Nc2cc(C(F)(F)F)ccc2OC1CCCN1CCN(c2ccc(F)cc2)CC1` (stereo not shown) [Example 27, 2-{3-[4-(4-fluorophenyl)-1-piperazinyl]propyl}-6-trifluoromethyl-2H-1,4-benzoxazin-3(4H)-one], the inhibition at 10 µM in assay [1] (setting [5]) was 36%; in assay [3], 98%.
`CCOC(=O)c1ccc2c(c1)OC(CCCN1CCN(c3ccc(F)cc3)CC1)C(=O)N2` (stereo not shown) [Example 8]: the inhibition at 10 µM in assay [1] (setting [5]) was 33%; in assay [3], 98%. For the same molecule, in assay [2] (60 mg/kg oral), the “Antihypertensive effect (Δ mm Hg)” value amounted to 35 mm Hg.
For the molecule `Cc1ccc(N2CCN(CCCC3Oc4cc5c(cc4NC3=O)CCCC5)CC2)cc1` (stereo not shown) [Example 17], the “Antihypertensive effect (Δ mm Hg)” value in assay [2] (3 mg/kg oral) is 26 mm Hg.
For `O=C1Nc2cc3c(cc2O[C@H]1CCCN1CCN(c2ccc(F)cc2)CC1)CCCC3` [Example 30, (S)-(-)-2-{3-[4-(4-fluorophenyl)-1-piperazinyl]propyl}-6,7,8,9-tetrahydro-2H-naphtho[2,3-b][1,4]oxazin-3(4H)-one], the inhibition at 10 µM in assay [1] (setting [5]) is 33%; in assay [3] it was 73%. Besides, in assay [2] (3 mg/kg oral), the “Antihypertensive effect (Δ mm Hg)” value was determined as 21 mm Hg.
Regarding `O=C1Nc2cc3c(cc2OC1CCCN1CCN(c2ccc(F)cc2)CC1)OCO3` (stereo not shown) [Example 13], the inhibition at 10 µM stood at 24% in assay [1] (setting [5]) and 100% in assay [3]. In assay [2] (3 mg/kg oral), the “Antihypertensive effect (Δ mm Hg)” value turned out to be 27 mm Hg.
